Among the data in ChEMBL document CHEMBL3507680, “University of Dundee, Gates Library screen for HepG2 cell viability” are cytotoxicity values, retold here.

The nature of the series: Human HepG2 cell viability assay in 384 well format. It is filed as toxicity, cell-based. Details: dose 125 nL, time 70.5 hour; cytotoxicity at 70.5 h: concentration not given beside the values. As to conditions: HepG2 cells, read-out: Inhibition.
Turning to `CN1CCN(C(=O)c2cc(-c3cccs3)cs2)CC1`, the cytotoxicity at 70.5 h is -10.5%.

Consider `O=C(NC1CCS(=O)(=O)C1)c1cc(Sc2ncccn2)ccn1` (stereo not drawn), for which the cytotoxicity at 70.5 h is -13.4%.

For the molecule `Cc1cc(C)n(CC(=O)Nc2cc(-c3ccncc3)[nH]n2)n1`, the cytotoxicity at 70.5 h was -4.82%.

Consider `Cc1ccn(CC(=O)Nc2cc(-c3ccncc3)[nH]n2)n1`, for which the cytotoxicity at 70.5 h is -2.4%.

Consider `O=C(c1ccc(-c2ccc(O)nc2)s1)N1CCSCC1`, for which the cytotoxicity at 70.5 h was -14%.

As to `Cc1ncc(CN2CCCC(c3nc4ccccc4n3C(C)C)C2)s1` (stereo not drawn), the cytotoxicity at 70.5 h was -2.93%.

With `Cc1cc(N(C)C)nc(C2(C)CCCN2C(=O)c2ccn(C)n2)n1` (stereo not drawn), the cytotoxicity at 70.5 h is -9.18%.

As to `Cc1ccc(-c2nnc(SCC(=O)O)n2-c2ccccc2)cc1`, the cytotoxicity at 70.5 h is -10.9%.

In the case of `Cc1cnc(N)c(C(=O)C2CCN(C(=O)c3cnc(C)nc3C)CC2)c1`, the cytotoxicity at 70.5 h is -6.36%.

In the case of `Cc1cnc(N)c(C(=O)C2CCN(C(=O)c3cnc(C)cn3)CC2)c1`, the cytotoxicity at 70.5 h was -13%.

With `NCc1cnn(-c2ccccc2C(=O)NCc2ccccc2Cl)c1`, the cytotoxicity at 70.5 h was -2.58%.

Take `COCCN1CCC(c2cncc(-c3cccc(Cl)c3)n2)CC1`: the cytotoxicity at 70.5 h is -5.78%.

For the molecule `CN(C)C(=O)CN1CCC(c2cncc(-c3cccc(Cl)c3)n2)CC1`, the cytotoxicity at 70.5 h is -7.08%.

Turning to `CC(C)(C)C(=O)N1CCCC(c2ncncc2-c2ccncc2)C1` (stereo not drawn), the cytotoxicity at 70.5 h was -4.45%.

Take `O=C(c1cccnc1)N1CCCC(c2ncncc2-c2ccncc2)C1` (stereo not drawn): the cytotoxicity at 70.5 h is -5.25%.

With `O=C(c1ccccn1)N1CCCC(c2ncncc2-c2ccncc2)C1` (stereo not drawn), the cytotoxicity at 70.5 h was -9.39%.

For the molecule `COc1cc(C2Nc3cc(Cl)ccc3C3=NCCN32)cc(OC)c1OC` (stereo not drawn), the cytotoxicity at 70.5 h was found to be 13.6%.

Regarding `COc1ccc(C2Nc3cc(Cl)ccc3C3=NCCN32)cc1CO` (stereo not drawn), the cytotoxicity at 70.5 h was 9.73%.

On to `Cc1cc(-c2cnc(N3CCNC(=O)C3)nc2-c2ccncc2)on1`, for which the cytotoxicity at 70.5 h came out at 7.7%.

As to `CN1CCN(c2ncc(-c3cnccn3)c([C@H]3CCCO3)n2)CC1`, the cytotoxicity at 70.5 h was -8.8%.

Take `Cc1n[nH]c(C)c1-c1cnc(C2CCN(S(C)(=O)=O)CC2)cn1`: the cytotoxicity at 70.5 h was -6.98%.

With `CC(=O)N1CCC(c2cnc(-c3c(C)nn(C)c3C)cn2)CC1`, the cytotoxicity at 70.5 h was -9.85%.

As to `Cc1cc(CCC(N)=O)cc(C2CCCN2Cc2ccccn2)n1` (stereo not drawn), the cytotoxicity at 70.5 h is -9.69%.

With `CC(=O)N1CCCC(c2ccccn2)C1` (stereo not drawn), the cytotoxicity at 70.5 h amounted to 8.66%.

Consider `Cc1nc(C2CN(C)CCO2)cc(N2CCC(CO)CC2)n1` (stereo not drawn), for which the cytotoxicity at 70.5 h was -4.15%.

As for `NCCn1nc(C2CCN(Cc3ccccc3)C2)c2nccnc21` (stereo not drawn), the cytotoxicity at 70.5 h came out at 0.0423%.

Take `CCCC(=O)N1CCC(c2ncc3c(n2)CCNC3)CC1`: the cytotoxicity at 70.5 h was -5.64%.

Turning to `CCC(=O)N1CCC(Cc2ccccc2-c2ccncc2)(C(=O)NC)C1` (stereo not drawn), the cytotoxicity at 70.5 h is -7.46%.

For the molecule `CN1CCCCC1c1ncc2c(n1)CCN(Cc1ccc(F)cc1)C2` (stereo not drawn), the cytotoxicity at 70.5 h is -5.99%.

As to `CCCC(=O)N1CCC(Cc2ccccc2-c2ccccc2)(C(N)=O)C1` (stereo not drawn), the cytotoxicity at 70.5 h is -6.16%.

Consider `COc1cc(C)c(CN2CCc3nc4ccsc4c(=O)n3CC2)cc1C`, for which the cytotoxicity at 70.5 h came out at 0.311%.

As for `COc1ccc(CN2CCc3nc4ccsc4c(=O)n3CC2)c(C)c1C`, the cytotoxicity at 70.5 h was 39.8%.

On to `CC[C@@H]1C[C@H](C(F)(F)F)n2nc(C3CCN(S(=O)(=O)CC)CC3)cc2N1`, for which the cytotoxicity at 70.5 h was found to be 18.8%.

For the molecule `CCC(=O)N1CCC2(CC1)CNC(=O)c1cc(C)ccc1O2`, the cytotoxicity at 70.5 h was -1.62%.

For `Cc1ccc2c(c1)C(=O)NCC1(CCN(Cc3ccccc3)CC1)O2`, the cytotoxicity at 70.5 h was -6.17%.

With `O=C(Cc1ccccn1)N1CCC(O)(Cn2ccc3ccncc32)CC1`, the cytotoxicity at 70.5 h was -6.87%.

On to `Cc1cc2c(=O)n3c(nc2s1)CCN(C(=O)c1cn(C)nc1C)CC3`, for which the cytotoxicity at 70.5 h is -1.48%.

`Cc1cc(C(=O)N2CCc3nc4sc(C)cc4c(=O)n3CC2)on1`: the cytotoxicity at 70.5 h is -2.99%.

As for `Cc1nc(C)c(C(=O)N2CCc3nc4sc(C)cc4c(=O)n3CC2)o1`, the cytotoxicity at 70.5 h was -4.92%.

For the molecule `Cc1cc2c(=O)n3c(nc2s1)CCN(C(=O)c1ccn(C)n1)CC3`, the cytotoxicity at 70.5 h is -5.05%.

As for `Cc1cc2c(=O)n3c(nc2s1)CCN(C(=O)c1cnn(C)c1)CC3`, the cytotoxicity at 70.5 h was -7.07%.

On to `Cc1cc2c(=O)n3c(nc2s1)CCN(C(=O)c1sc(C)nc1C)CC3`, for which the cytotoxicity at 70.5 h was -2.56%.

As to `C[C@@H]1C[C@H](C(F)(F)F)n2nc(C3CCN(C(=O)C(C)(C)C)CC3)cc2N1`, the cytotoxicity at 70.5 h was -6.86%.

As for `COCC(=O)N1CCC(c2cc3n(n2)[C@@H](C(F)(F)F)C[C@@H](C)N3)CC1`, the cytotoxicity at 70.5 h was -8.82%.

As for `O=S1(=O)NC(C2CCN(Cc3ccccn3)CC2)Nc2ccccc21` (stereo not drawn), the cytotoxicity at 70.5 h was -9.26%.

For `Cc1ccc(S(=O)(=O)N2C[C@H]3C[C@H](NC(=O)c4ccccn4)[C@H]3C2)cc1`, the cytotoxicity at 70.5 h turned out to be 56.3%.

For `COc1cccc(CNC(=O)c2ccccc2-n2cc(CN)cn2)c1`, the cytotoxicity at 70.5 h is -2.7%.

Regarding `Cn1cnc(CNC(=O)c2ccccc2-n2cc(CN)cn2)c1`, the cytotoxicity at 70.5 h is -5.11%.

`O=C(O)COc1ccccc1CN1CCCC1c1ccncn1` (stereo not drawn): the cytotoxicity at 70.5 h was -6.02%.

As to `Cc1cc(N)cc(C2CN(Cc3cc[nH]n3)CCO2)n1` (stereo not drawn), the cytotoxicity at 70.5 h was -6.43%.

In the case of `O=C1CO[C@H]2CN(Cc3ccccc3Br)C[C@@H]2N1`, the cytotoxicity at 70.5 h amounted to 20.8%.

`Cc1ccccc1CC(=O)N(C)CC1(O)CCCN(c2ccccn2)C1` (stereo not drawn): the cytotoxicity at 70.5 h is -5.53%.

`CN(CC1(O)CCCN(c2ccccn2)C1)C(=O)CCc1cccs1` (stereo not drawn): the cytotoxicity at 70.5 h is -7.41%.

Turning to `Cn1ccnc1CN1CC[C@H](O)[C@@H](n2ccc(=O)[nH]c2=O)CC1`, the cytotoxicity at 70.5 h was -3.14%.

Turning to `CN(CC1(O)CCN(c2ccccn2)C1)C(=O)Cc1ccsc1` (stereo not drawn), the cytotoxicity at 70.5 h is -6.86%.

`CC(C)(C)CC(=O)N1CCC(c2nn(CCN)c3nccnc23)C1` (stereo not drawn): the cytotoxicity at 70.5 h was -4.08%.

For `CCn1ncc(CN2C[C@@H]3CCCN3C[C@@H]2CCSC)c1C`, the cytotoxicity at 70.5 h is -6.31%.

As to `CCn1ncc(CN2C[C@@H]3CCCN3C[C@H]2CCSC)c1C`, the cytotoxicity at 70.5 h was 1.32%.

Take `CCc1cc(C(F)(F)F)c2c(C3CCCN(C(=O)COC)C3)noc2n1` (stereo not drawn): the cytotoxicity at 70.5 h was -4.44%.

As to `CN(C)C(=O)CN1CCCC(c2cncc(-c3cccc(Cl)c3)n2)C1` (stereo not drawn), the cytotoxicity at 70.5 h was -1.23%.

With `CN1CCC(CN(C)C(=O)c2cc(C3CCCN3C)ccn2)CC1` (stereo not drawn), the cytotoxicity at 70.5 h is -6.76%.

Take `Cc1nc(Nc2ncccn2)cc(C2CN(C(=O)c3cccnc3)C2)n1`: the cytotoxicity at 70.5 h is -8.6%.

Regarding `Cc1cc(C(F)(F)F)c2c(C3CCCN(C(=O)C4CC4)C3)noc2n1` (stereo not drawn), the cytotoxicity at 70.5 h is -8.63%.

Consider `Cc1nc(Nc2nnc(C)s2)cc(C2CCCN2S(C)(=O)=O)n1` (stereo not drawn), for which the cytotoxicity at 70.5 h is -1.79%.

Consider `Cn1ccc2ccnc(CC3CN(C(=O)c4cscn4)C3)c21`, for which the cytotoxicity at 70.5 h is -2.15%.

Take `CNC(=O)C1CN(Cc2c[nH]cn2)CCN(C2CCOCC2)C1` (stereo not drawn): the cytotoxicity at 70.5 h came out at 14.9%.

For the molecule `CN1CCCC(Cc2cncc(C(=O)NC3CC3)c2)C1` (stereo not drawn), the cytotoxicity at 70.5 h was -6.9%.

Regarding `CCSCCOC(=O)CCCc1ccc2c(c1)CC(=O)N2`, the cytotoxicity at 70.5 h is -12.3%.

For `O=C(C1CCCC1)N1CCC(C(O)c2ccc(F)cc2)CC1` (stereo not drawn), the cytotoxicity at 70.5 h is -6.02%.

Consider `CCOC(=O)CCCc1ccc2c(c1)CC(=O)N2`, for which the cytotoxicity at 70.5 h is -18.2%.

For `COC(=O)C1(NCc2nc(C)c(C)o2)CCC(C)CC1` (stereo not drawn), the cytotoxicity at 70.5 h is -8.62%.

Consider `Cc1cc(C(=O)NCC2SCCc3ccccc32)no1` (stereo not drawn), for which the cytotoxicity at 70.5 h was -14.4%.

Take `O=C(NCC1SCCc2ccccc21)c1cscn1` (stereo not drawn): the cytotoxicity at 70.5 h is -13.5%.

For the molecule `Cn1cc(C(=O)Nc2cccc(-c3ccc4c(c3)CCO4)n2)ccc1=O`, the cytotoxicity at 70.5 h is 12%.

Take `CCC(O)CN(Cc1cccc(C(=O)N(C)C)c1)c1ccccc1` (stereo not drawn): the cytotoxicity at 70.5 h is -1.87%.

For `CC(O)CN(Cc1cccc(C(=O)N(C)C)c1)c1ccccc1` (stereo not drawn), the cytotoxicity at 70.5 h is -3.2%.

Regarding `Cc1cc(CN(C)Cc2cnc3c(c2)c(C)nn3C)no1`, the cytotoxicity at 70.5 h worked out at 8.45%.

In the case of `Cn1cc(C2(C)CN(C(=O)COc3ccccc3F)CCO2)cn1` (stereo not drawn), the cytotoxicity at 70.5 h is -4.09%.

As for `COc1ccccc1CC1CCCN(C(=O)c2n[nH]c3c2CCC3)C1` (stereo not drawn), the cytotoxicity at 70.5 h is -3.07%.

On to `COc1ccc(Cl)cc1CCNC(=O)N(C)CC1CCOC1` (stereo not drawn), for which the cytotoxicity at 70.5 h was -1.13%.

Take `CCN(CC)C(=O)C1(NCc2nc(C)c(C)o2)CCCCC1`: the cytotoxicity at 70.5 h is -4.63%.

With `O=S(=O)(NCCCn1cccn1)c1ccc2c(c1)CCC2`, the cytotoxicity at 70.5 h is -5.82%.

For the molecule `Cc1cccc(C(C)C)c1NC(=O)NCCN(C(C)C)C(C)C`, the cytotoxicity at 70.5 h was -4.96%.

As to `CC(C)CNC(=O)c1sccc1-n1cnnn1`, the cytotoxicity at 70.5 h is -7.28%.

Consider `O=S(=O)(NCCCn1cncn1)c1ccc2c(c1)OCCO2`, for which the cytotoxicity at 70.5 h was -3.62%.

Consider `OC(CNCc1nnc2ccccn12)c1ccc2c(c1)OCO2` (stereo not drawn), for which the cytotoxicity at 70.5 h was -8%.

Consider `OC(CNCCc1nnc2ccccn12)c1ccc(F)c(F)c1` (stereo not drawn), for which the cytotoxicity at 70.5 h is -6.79%.

Regarding `CC(CN1CCOC1=O)NC(=O)c1ccccc1Oc1ccccc1` (stereo not drawn), the cytotoxicity at 70.5 h was found to be 27.1%.

As for `CCNC(=O)c1ccc(NC(=O)N(C)Cc2cc(C)on2)cc1`, the cytotoxicity at 70.5 h is -4.32%.

Regarding `CC(OCC1CC1)C(=O)NCCC(=O)Nc1ccccn1` (stereo not drawn), the cytotoxicity at 70.5 h is -7.55%.

Take `CC(CN1CCOCC1)NC(=O)N1CCN(S(C)(=O)=O)CC1` (stereo not drawn): the cytotoxicity at 70.5 h worked out at 27.9%.

Turning to `O=S(=O)(c1cc(F)ccc1N1CC(n2cccn2)C1)C(F)(F)F`, the cytotoxicity at 70.5 h is -0.145%.

`COc1ccc(OCCNC(=O)CN(C)Cc2nnc(C)n2C)cc1`: the cytotoxicity at 70.5 h was found to be 29.6%.

As for `O=C(Nc1cccc(N2CCCC2)c1)N[C@H](CCO)c1ccccc1`, the cytotoxicity at 70.5 h was 2.92%.

As for `CC1CCC(O)(CSc2nnnn2C)CC1` (stereo not drawn), the cytotoxicity at 70.5 h is -3.28%.

On to `COc1ccc(OC)c(CN2CCc3nc4ccsc4c(=O)n3CC2)c1`, for which the cytotoxicity at 70.5 h is 38.7%.

`Cc1cc(C[C@@H]2COC[C@H]2NCc2ccc(C(C)C)cc2)on1`: the cytotoxicity at 70.5 h was -8.05%.

In the case of `COc1cc(CN[C@@H]2COC[C@H]2Cc2cc(C)no2)cc(OC)c1`, the cytotoxicity at 70.5 h is -6.2%.
